Results reported in PMC5218480 (PLoS ONE, 2017).

Tested on: MV-4-11 cells
Experiment: Gene expression microarray analysis (Affymetrix PrimeView) and GSEA
Format: cell-based, human
Design: RFU PODN (11730768_x_at) / Fold change /veh PODN (11730768_x_at) / RFU LINC00158 (11744669_a_at) / Fold change /veh LINC00158 (11744669_a_at) / RFU DUSP10 (11751237_a_at) / Fold change /veh DUSP10 (11751237_a_at) / RFU ID3 (11757404_x_at) / Fold change /veh ID3 (11757404_x_at) / RFU PLEKHG5 (11737974_s_at) / Fold change /veh PLEKHG5 (11737974_s_at) / RFU LRRC4B (11730491_at) / Fold change /veh LRRC4B (11730491_at) / RFU GIMAP4 (11747438_a_at) / Fold change /veh GIMAP4 (11747438_a_at) / RFU KRT8 (11758183_x_at) / Fold change /veh KRT8 (11758183_x_at) / RFU CNN1 (11734310_a_at) / Fold change /veh CNN1 (11734310_a_at) / RFU VPS37D (11726825_at) / Fold change /veh VPS37D (11726825_at) / RFU C10orf10 (11716522_x_at) / Fold change /veh C10orf10 (11716522_x_at) / RFU KIR2DL2 /// KIR2DL4 /// KIR2DL5A /// KIR2DL5B /// KIR2DS1 /// KIR2DS2 /// KIR2DS3 /// KIR2DS4 /// KIR3DL3 /// KIR3DL3 /// KIR3DS1 (11738374_at) / Fold change /veh KIR2DL2 /// KIR2DL4 /// KIR2DL5A /// KIR2DL5B /// KIR2DS1 /// KIR2DS2 /// KIR2DS3 /// KIR2DS4 /// KIR3DL3 /// KIR3DL3 /// KIR3DS1 (11738374_at) / RFU C1QL1 (11718748_at) / Fold change /veh C1QL1 (11718748_at) / RFU TMPRSS4 (11747572_a_at) / Fold change /veh TMPRSS4 (11747572_a_at) / RFU HAMP (11756126_x_at) / Fold change /veh HAMP (11756126_x_at) / RFU RNFT2 (11725882_a_at) / Fold change /veh RNFT2 (11725882_a_at) / RFU NR4A2 (11747474_a_at) / Fold change /veh NR4A2 (11747474_a_at) / RFU ABCC12 (11746883_a_at) / Fold change /veh ABCC12 (11746883_a_at) / RFU TMEM136 (11760407_x_at) / Fold change /veh TMEM136 (11760407_x_at) / RFU CLDN22 /// WWC2 (11732394_at) / Fold change /veh CLDN22 /// WWC2 (11732394_at) / RFU HLA-DPB1 (11760878_x_at) / Fold change /veh HLA-DPB1 (11760878_x_at) / RFU SPINT1 (11716480_a_at) / Fold change /veh SPINT1 (11716480_a_at) / RFU GAP43 (11754022_s_at) / Fold change /veh GAP43 (11754022_s_at) / RFU A4GNT (11735810_at) / Fold change /veh A4GNT (11735810_at) / RFU PRB3 (11715151_x_at) / Fold change /veh PRB3 (11715151_x_at) / RFU TUBB4B (11761932_at) / Fold change /veh TUBB4B (11761932_at) / RFU CAPN14 (11732068_a_at) / Fold change /veh CAPN14 (11732068_a_at) / RFU TMCC2 (11721928_a_at) / Fold change /veh TMCC2 (11721928_a_at) / RFU IRGQ (11745062_a_at) / Fold change /veh IRGQ (11745062_a_at) / RFU FAM174B (11720279_a_at) / Fold change /veh FAM174B (11720279_a_at) / RFU TMPRSS4 (11748680_a_at) / Fold change /veh TMPRSS4 (11748680_a_at) / RFU FAM212B (11763350_a_at) / Fold change /veh FAM212B (11763350_a_at) / RFU PLEKHG5 (11743358_a_at) / Fold change /veh PLEKHG5 (11743358_a_at) / RFU ZSCAN30 (11745921_a_at) / Fold change /veh ZSCAN30 (11745921_a_at) / RFU CMKLR1 (11741424_a_at) / Fold change /veh CMKLR1 (11741424_a_at) / RFU LOC101060620 /// MAPK8IP1 (11723275_at) / Fold change /veh LOC101060620 /// MAPK8IP1 (11723275_at) / RFU SPTSSB (11747773_x_at) / Fold change /veh SPTSSB (11747773_x_at) / RFU PRSS12 (11739890_at) / Fold change /veh PRSS12 (11739890_at) / RFU BIN1 (11741810_x_at) / Fold change /veh BIN1 (11741810_x_at) / RFU WNT11 (11732464_a_at) / Fold change /veh WNT11 (11732464_a_at) / RFU C10orf10 (11716521_a_at) / Fold change /veh C10orf10 (11716521_a_at) / RFU C5orf56 (11738089_at) / Fold change /veh C5orf56 (11738089_at) / RFU CYB561 (11721691_x_at) / Fold change /veh CYB561 (11721691_x_at) / RFU ANKRD19P (11752326_a_at) / Fold change /veh ANKRD19P (11752326_a_at) / RFU OR2T12 /// OR2T33 /// OR2T8 (11738714_s_at) / Fold change /veh OR2T12 /// OR2T33 /// OR2T8 (11738714_s_at) / RFU VCAN (11748164_a_at) / Fold change /veh VCAN (11748164_a_at) / RFU JSRP1 (11732532_at) / Fold change /veh JSRP1 (11732532_at) / RFU KRTAP10-11 (11738290_x_at) / Fold change /veh KRTAP10-11 (11738290_x_at) / RFU MYO3A (11730013_a_at) / Fold change /veh MYO3A (11730013_a_at) / RFU EBF3 (11725865_a_at) / Fold change /veh EBF3 (11725865_a_at) / RFU CAMK2N1 (11719241_x_at) / Fold change /veh CAMK2N1 (11719241_x_at) / RFU C5orf56 (11738088_a_at) / Fold change /veh C5orf56 (11738088_a_at) / RFU OLFML3 (11715873_a_at) / Fold change /veh OLFML3 (11715873_a_at) / RFU LOC100653217 /// NTM (11731650_a_at) / Fold change /veh LOC100653217 /// NTM (11731650_a_at) / RFU MAPK11 (11762145_a_at) / Fold change /veh MAPK11 (11762145_a_at) / RFU FIZ1 (11724087_x_at) / Fold change /veh FIZ1 (11724087_x_at) / RFU OASL (11726364_x_at) / Fold change /veh OASL (11726364_x_at) / RFU SOX15 (11748057_x_at) / Fold change /veh SOX15 (11748057_x_at) / RFU CD79A (11719716_a_at) / Fold change /veh CD79A (11719716_a_at) / RFU HIST1H1D (11736915_at) / Fold change /veh HIST1H1D (11736915_at) / RFU CASKIN2 (11723855_a_at) / Fold change /veh CASKIN2 (11723855_a_at) / RFU LOC730098 (11760151_x_at) / Fold change /veh LOC730098 (11760151_x_at) / RFU OR4N2 (11742367_at) / Fold change /veh OR4N2 (11742367_at) / RFU PRRT2 (11749266_a_at) / Fold change /veh PRRT2 (11749266_a_at) / RFU SNX32 (11753110_a_at) / Fold change /veh SNX32 (11753110_a_at) / RFU CDHR5 (11726645_a_at) / Fold change /veh CDHR5 (11726645_a_at) / RFU RCAN1 (11760418_a_at) / Fold change /veh RCAN1 (11760418_a_at) / RFU FAM167A (11723789_a_at) / Fold change /veh FAM167A (11723789_a_at) / RFU FAM26E (11764081_at) / Fold change /veh FAM26E (11764081_at) / RFU ISYNA1 (11749810_s_at) / Fold change /veh ISYNA1 (11749810_s_at) / RFU ACY1 (11761880_at) / Fold change /veh ACY1 (11761880_at) / RFU 11764098_at / Fold change /veh 11764098_at / RFU SAMD14 (11745864_x_at) / Fold change /veh SAMD14 (11745864_x_at) / RFU NPB (11741838_a_at) / Fold change /veh NPB (11741838_a_at) / RFU TMPRSS6 (11731388_a_at) / Fold change /veh TMPRSS6 (11731388_a_at) / RFU KRTAP10-2 (11738614_at) / Fold change /veh KRTAP10-2 (11738614_at) / RFU ARHGAP8 /// PRR5-ARHGAP8 (11727945_x_at) / Fold change /veh ARHGAP8 /// PRR5-ARHGAP8 (11727945_x_at) / RFU KRTAP5-7 /// NADSYN1 (11734609_at) / Fold change /veh KRTAP5-7 /// NADSYN1 (11734609_at) / RFU RASL12 (11751679_a_at) / Fold change /veh RASL12 (11751679_a_at) / RFU CDKN2B (11736163_a_at) / Fold change /veh CDKN2B (11736163_a_at) / RFU PRF1 (11729649_at) / Fold change /veh PRF1 (11729649_at) / RFU, ZNF638 /// ZNF638-IT1 / Fold change vs veh, ZNF638 /// ZNF638-IT1 / RFU, PANK3 / Fold change vs veh, PANK3 / RFU, SH3YL1 / Fold change vs veh, SH3YL1 / RFU, ZEB2 / Fold change vs veh, ZEB2 / RFU, NRIP1 / Fold change vs veh, NRIP1 / RFU, PTTG1IP / Fold change vs veh, PTTG1IP / RFU, CAPN2 / Fold change vs veh, CAPN2 / RFU, MED14 / Fold change vs veh, MED14 / RFU, SNORA58 / Fold change vs veh, SNORA58 / RFU, C1orf63 / Fold change vs veh, C1orf63 / RFU, LRRFIP1 / Fold change vs veh, LRRFIP1 / RFU, NDUFAF7 / Fold change vs veh, NDUFAF7 / RFU, SLC12A2 / Fold change vs veh, SLC12A2 / RFU, IBTK / Fold change vs veh, IBTK / RFU, ESF1 / Fold change vs veh, ESF1 / Fold change vs veh, TMEM50B / RFU, TAOK1 / Fold change vs veh, TAOK1 / RFU, ACBD3 / Fold change vs veh, ACBD3 / RFU, TMA16 / Fold change vs veh, TMA16 / RFU, RWDD3 / Fold change vs veh, RWDD3 / RFU, BCAT1 / Fold change vs veh, BCAT1 / RFU, EDEM3 / Fold change vs veh, EDEM3 / RFU, TMEM33 / Fold change vs veh, TMEM33 / RFU, WDR75 / Fold change vs veh, WDR75 / RFU, AHCTF1 / Fold change vs veh, AHCTF1 / RFU, TFRC / Fold change vs veh, TFRC / RFU, ZDHHC17 / Fold change vs veh, ZDHHC17 / RFU, NOM1 / Fold change vs veh, NOM1 / RFU, ARL8B / Fold change vs veh, ARL8B / RFU, ZBTB11 / Fold change vs veh, ZBTB11 / RFU, TAMM41 / Fold change vs veh, TAMM41 / RFU, KIAA1704 /// LOC100996395 / Fold change vs veh, KIAA1704 /// LOC100996395 / RFU, ING1 / Fold change vs veh, ING1 / RFU, TRMT61B / Fold change vs veh, TRMT61B / RFU, FUBP3 / Fold change vs veh, FUBP3 / RFU, TP53 / Fold change vs veh, TP53 / RFU, TNKS2 / Fold change vs veh, TNKS2 / RFU, ZFP14 / Fold change vs veh, ZFP14 / RFU, ACTR2 / Fold change vs veh, ACTR2 / RFU, PPP3R1 / Fold change vs veh, PPP3R1 / RFU, PIK3R1 / Fold change vs veh, PIK3R1 / RFU, HNRNPA1 / Fold change vs veh, HNRNPA1 / RFU, RNF170 / Fold change vs veh, RNF170 / RFU, ZNF28 / Fold change vs veh, ZNF28 / RFU, RNGTT / Fold change vs veh, RNGTT / RFU, OGT / Fold change vs veh, OGT / RFU, BRD1 / Fold change vs veh, BRD1 / RFU, MARS / Fold change vs veh, MARS / RFU, ZNF655 / Fold change vs veh, ZNF655 / RFU, FAHD1 / Fold change vs veh, FAHD1 / RFU, BDP1 / Fold change vs veh, BDP1 / RFU, LRRCC1 / Fold change vs veh, LRRCC1 / RFU, ARID1A / Fold change vs veh, ARID1A / RFU, ZNF146 / Fold change vs veh, ZNF146 / RFU, ZNF330 / Fold change vs veh, ZNF330 / RFU, GPN3 / Fold change vs veh, GPN3 / RFU, C9orf123 / Fold change vs veh, C9orf123 / RFU, N4BP2L2 / Fold change vs veh, N4BP2L2 / RFU, ARFIP1 / Fold change vs veh, ARFIP1 / RFU, FAM179B / Fold change vs veh, FAM179B / RFU, BCL10 / Fold change vs veh, BCL10 / RFU, UHRF1BP1L / Fold change vs veh, UHRF1BP1L / RFU, BET1 / Fold change vs veh, BET1 / RFU, CNOT2 / Fold change vs veh, CNOT2 / RFU, ZNF268 / Fold change vs veh, ZNF268 / Fold change vs veh, ZNF507 / RFU, DGCR2 / Fold change vs veh, DGCR2 / RFU, WDSUB1 / Fold change vs veh, WDSUB1 / Fold change vs veh, HSP90B1 /// MIR3652 / RFU, ADSS / Fold change vs veh, ADSS / RFU, GK / Fold change vs veh, GK / RFU, ZNF148 / Fold change vs veh, ZNF148 / RFU, TAF9 / Fold change vs veh, TAF9 / RFU, SLC1A5 / Fold change vs veh, SLC1A5 / RFU, SLMO2 / Fold change vs veh, SLMO2 / RFU, ABCC4 / Fold change vs veh, ABCC4 / RFU, LOC101060439 /// RAP1B / Fold change vs veh, LOC101060439 /// RAP1B / RFU, RFX7 / Fold change vs veh, RFX7 / RFU, GTPBP10 / Fold change vs veh, GTPBP10 / RFU, CNEP1R1 / Fold change vs veh, CNEP1R1 / RFU, BIVM-ERCC5 /// ERCC5 / Fold change vs veh, BIVM-ERCC5 /// ERCC5 / RFU, ILF3 / Fold change vs veh, ILF3 / RFU 11762660_at / Fold change /veh 11762660_at / RFU VCAN (11757783_s_at) / Fold change /veh VCAN (11757783_s_at) / RFU DDX43 (11728927_at) / Fold change /veh DDX43 (11728927_at) / RFU KRT8 (11758188_x_at) / Fold change /veh KRT8 (11758188_x_at) / RFU NKD1 (11759106_at) / Fold change /veh NKD1 (11759106_at) / RFU SRD5A1 (11742802_a_at) / Fold change /veh SRD5A1 (11742802_a_at) / RFU TPSAB1 /// TPSB2 (11721975_s_at) / Fold change /veh TPSAB1 /// TPSB2 (11721975_s_at) / RFU GSTM3 (11746129_a_at) / Fold change /veh GSTM3 (11746129_a_at) / RFU IL23R (11737362_x_at) / Fold change /veh IL23R (11737362_x_at) / RFU TMEM51 (11727254_a_at) / Fold change /veh TMEM51 (11727254_a_at) / RFU PIWIL2 (11732686_x_at) / Fold change /veh PIWIL2 (11732686_x_at) / RFU ORM1 (11744905_x_at) / Fold change /veh ORM1 (11744905_x_at) / RFU CCDC152 (11743942_at) / Fold change /veh CCDC152 (11743942_at) / RFU ECM1 (11717891_a_at) / Fold change /veh ECM1 (11717891_a_at) / RFU IL23R (11748794_a_at) / Fold change /veh IL23R (11748794_a_at) / RFU TNFAIP8L3 (11732012_x_at) / Fold change /veh TNFAIP8L3 (11732012_x_at) / RFU MBOAT4 (11741988_at) / Fold change /veh MBOAT4 (11741988_at) / RFU 11764193_at / Fold change /veh 11764193_at / RFU TMEM53 (11763286_at) / Fold change /veh TMEM53 (11763286_at) / RFU MAGEB2 (11727129_at) / Fold change /veh MAGEB2 (11727129_at) / RFU TMEM200A (11744735_a_at) / Fold change /veh TMEM200A (11744735_a_at) / RFU CCDC152 (11751479_a_at) / Fold change /veh CCDC152 (11751479_a_at) / RFU FAM211A (11726209_a_at) / Fold change /veh FAM211A (11726209_a_at) / RFU RGS16 (11746705_a_at) / Fold change /veh RGS16 (11746705_a_at) / RFU VCAN (11755009_s_at) / Fold change /veh VCAN (11755009_s_at) / RFU RHOB (11743442_s_at) / Fold change /veh RHOB (11743442_s_at) / RFU RGS16 (11720943_a_at) / Fold change /veh RGS16 (11720943_a_at) / RFU RGS16 (11720944_at) / Fold change /veh RGS16 (11720944_at) / RFU, VPS4B / Fold change vs veh, VPS4B / RFU, CREB1 / Fold change vs veh, CREB1 / RFU, DNAJC13 / Fold change vs veh, DNAJC13 / RFU, GNAQ / Fold change vs veh, GNAQ / RFU, CDK5R1 / Fold change vs veh, CDK5R1 / RFU, ZRANB3 / Fold change vs veh, ZRANB3 / RFU, CUL4A / Fold change vs veh, CUL4A / RFU, CCNY / Fold change vs veh, CCNY / RFU, UFL1 / Fold change vs veh, UFL1 / RFU, COG3 / Fold change vs veh, COG3 / RFU, DIAPH2 / Fold change vs veh, DIAPH2 / RFU, SKA2 / Fold change vs veh, SKA2 / RFU, AFF3 / Fold change vs veh, AFF3 / RFU, LMF1 / Fold change vs veh, LMF1 / RFU, IPO11 / Fold change vs veh, IPO11 / RFU, DFFB / Fold change vs veh, DFFB / RFU, FOXP1 / Fold change vs veh, FOXP1 / RFU, CARD8 / Fold change vs veh, CARD8 / RFU, STRN3 / Fold change vs veh, STRN3 / RFU, ADK / Fold change vs veh, ADK / RFU, RASSF2 / Fold change vs veh, RASSF2 / RFU, WIPF1 / Fold change vs veh, WIPF1 / RFU, LARP1B / Fold change vs veh, LARP1B / RFU, RASA1 / Fold change vs veh, RASA1 / RFU, RB1 / Fold change vs veh, RB1 / RFU, PPFIA1 / Fold change vs veh, PPFIA1 / RFU, MAT2A / Fold change vs veh, MAT2A / RFU, CCT5 / Fold change vs veh, CCT5 / RFU, WDR92 / Fold change vs veh, WDR92 / RFU, CUX1 / Fold change vs veh, CUX1 / RFU, TTC7A / Fold change vs veh, TTC7A / RFU, TMEM135 / Fold change vs veh, TMEM135 / RFU, DEPTOR / Fold change vs veh, DEPTOR / RFU, CPM / Fold change vs veh, CPM / RFU, DNAJB6 / Fold change vs veh, DNAJB6 / RFU, CACNA2D3 / Fold change vs veh, CACNA2D3 / RFU, DTX4 / Fold change vs veh, DTX4 / RFU, TFCP2 / Fold change vs veh, TFCP2 / RFU, GMCL1 /// GMCL1P1 / Fold change vs veh, GMCL1 /// GMCL1P1 / RFU, AEBP2 / Fold change vs veh, AEBP2 / RFU, SNHG1 /// SNORD22 /// SNORD25 /// SNORD26 /// SNORD27 /// SNORD28 /// SNORD29 /// SNORD31 / Fold change vs veh, SNHG1 /// SNORD22 /// SNORD25 /// SNORD26 /// SNORD27 /// SNORD28 /// SNORD29 /// SNORD31 / Fold change (Aza/veh), C12orf56 (ProbeSet 11735607_a_at) / Fold change (ACY-1035/veh), C12orf56 (ProbeSet 11735607_a_at) / Fold change (Aza/veh), FGFR1OP (ProbeSet 11751329_s_at) / Fold change (ACY-1035/veh), FGFR1OP (ProbeSet 11751329_s_at) / Fold change (Aza/veh), VPS36 (ProbeSet 11739960_a_at) / Fold change (ACY-1035/veh), VPS36 (ProbeSet 11739960_a_at) / RFU SYPL1 (11715823_x_at) / Fold change /veh SYPL1 (11715823_x_at) / RFU IGFBP7 (11715501_s_at) / Fold change /veh IGFBP7 (11715501_s_at) / RFU REEP3 (11722064_at) / Fold change /veh REEP3 (11722064_at) / RFU IGLL1 (11728026_x_at) / Fold change /veh IGLL1 (11728026_x_at): dose or concentration left out as unconfirmed
Details: ProbeSet 11741199_a_at; LIST B

For `Nc1ccc(-c2cccs2)cc1NC(=O)c1ccc2c(c1)cc(C1CC1)n2CCN1CCOCC1` [ACY-1035], the “Fold change vs veh, LRRCC1” value was 0.84.
